Here are results for one molecule from patent publication US20240197890A1, “FLAVONE DERIVATIVES AND USES IN TARGETING CK2-MEDIATED DISEASES AND CONDITIONS” (Salk Institute for Biological Studies, priority 2020, published 2024).

The test system of test [1] is IL-6, IL-8, TNF-α and MCP-1 in primary human cerebellar astrocytes (HCA). Description: Flow-cytometry assay of intracellular cytokine production in IL1-β-treated astrocytes. The test is classed as cell-based. As to the method: Flow cytometry. For each well of HCA in a 6-well plate, 2 mL of fresh media with GolgiPLUG (BD #555029, 1:1000) and GolgiSTOP (BD #554724, 1:1000) with 20 μM compound or vehicle (DMSO) and IL1-β 10 ng/mL or DPBS was added. The cells were incubated for 5 h at 37° C. Cells were collected with TrypLE and plated into a 96-well V-bottom plate for staining. The plate was centrifuged for 5 min, 1300 rpm, 4° C. to pellet cells, which were subsequently resuspended in 100 μl DPBS with 1 μl Zombie Violet (Biolegend #423113) and 5 μl Human Trustain FC block (Biolegend #422302) per well for 15 min at room temperature in the dark. The plate was centrifuged, supernatant was aspirated, and the cells were washed with 100 μl/well DPBS. Cells were fixed with 100 μl/well of Cytofix/Cytoperm (BD) for 20 min at 4° C. The plate was centrifuged, supernatant was aspirated, and cells were resuspended in 100 μl Permwash (BD) and incubated for 15 min at 4° C. The plate was centrifuged, supernatant was aspirated, and cells were incubated with 100 μl/well of Ab mix or isotype mix in Permwash (see below) for 20 min at 4° C., followed by centrifugation and 2× PermWash washes. The cells were resuspended in 100 ul DPBS and transferred to FACS tubes containing 200 ul of PBS (total volume per tube 300 μl) for analysis on FACS Analyzers (LSRII or Fortessa).
Primary human cerebellar astrocytes (HCA) were co-treated with 20 μM of each compound or vehicle (DMSO), 10 ng/mL IL1-β, and a protein transport inhibitor for 6 hours, and then processed for intracellular staining of pro-inflammatory cytokines IL-6, IL-8, TNF-α, and MCP-1. […]; in vitro IC50 values are for CK2 as reported in the literature).

Test [2] has as its system IL6 expression. Description: IL6 expression in AD patient iPSC-derived astrocytes after IL1-β stimulation (qRT-PCR). The test is classed as cell-based, human. Particulars: controls and AD astrocytes. In general terms: Quantitative PCR measures a nucleic acid by following its amplification.
Test [3] concerns LPS-induced cytokine release in human iPSC-derived microglia. Description: Cytokine release assay in LPS-stimulated iPSC-derived microglia. In kind it is cell-based. Particulars: 20 μM, 5 hours, panel of 36 cytokines. As to the method:
Cytokine release assay. […] Subsequently, media cleared of cells and debris was collected, snap-frozen and stored at -80 C until processing with the Human Cytokine Array kit (R&D Systems, Catalog #ARY005). Briefly, media was diluted in Array Buffer 4 and incubated with a cocktail of biotinylated detection antibodies for 1 h at room temperature with rocking. The resulting immunocomplexes were incubated with nitrocellulose membranes spotted with capture antibodies overnight at 4 C (see below for full list of targets). The membranes were washed 4× with Wash Buffer, then incubated with IRDye 800CW Streptavidin for 30 minutes at room temperature (1:2000 in Array Buffer 5, LI-COR #926-32230). The membranes were washed 4× and imaged with an Odyssey CLx instrument. Intensity for each spot was quantified with ImageStudio. Technical duplicate values for each target were averaged, and we determined differential cytokine release by microglia exposed to LPS+vehicle versus vehicle only (n=2 biological replicates, two-tailed t-tests, P<0.05).

The test system of test [4] is CK2α1. Description: CK2 levels in IL1-β-stimulated human primary astrocytes (Western blot). Particulars: after 5 hours. In kind it is cell-based. As to the method:
Western blotting. […] Cells were dissociated with 1:1 Accutase:papain for 3 min at rt, pelleted for 5 min at 800 g, and washed twice with cold DPBS. Pellets were lysed with RIPA buffer (Sigma R0278) supplemented with Halt protease inhibitor cocktail (Thermo Fisher 78445) and clarified by centrifugation (16,000 g, 10 min, 4° C.). Protein concentration was determined by BCA assay (Thermo Fisher). Proteins were denatured in 1×LDS Buffer and 2.5% beta-mercaptoethanol (X) for 10 min at 70° C., separated on Bolt 4-12% Bis-Tris Plus polyacrylamide gels (Thermo Fisher), transferred to PVDF membranes using the iBlot 2 Dry Blotting System, and blocked with 0.1% casein-PBS (Bio-Rad) for 1 h at room temperature. The blots were incubated with primary antibodies overnight at 4° C. in PBS containing 0.1% casein and 0.2% Tween-20. Antibodies used: rabbit anti-CK2a1 (Bethyl #, 1:5000), rabbit anti-CK2a2 (Bethyl #, 1:5000), mouse anti-GAPDH (Fitzgerald #10-1501, 1:20,000), mouse anti-NF-KB (CST #6956S, 1:1000), pNF-KB S529 (TFS #14-9864-82, 1:100), LC3B (CST 2775, 1:1000), ACO2 (CST 6922, 1:1000), rabbit HMGB1 (Novus #NB1002322, 1:1000), mouse anti-IκBα (CST #4814S, 1:1000), mouse anti-IκBa pS32 (SC #8404, 1:500), HA-tag (Bethyl #A190-108A, 1:20000). […] The blots were imaged using the Odyssey CLx imaging system and blots were analyzed on the ImageStudio software (LI-COR).
For orientation: Immunoblotting shows a protein as a band on a membrane.

Regarding `COc1cc(-c2cc(=O)c3c(O)cc(O)cc3o2)ccc1O` [CHR, chrysoeriol], the “suppression of IL1-β-induced IL-6, IL-8, TNF-α and MCP-1 cytokine upregulation” value in test [1] (20 μM, human astrocytes) was “strong suppressive activity”. Further, the “summary of SAR data, activity class” value in test [1] (at 20 μM, FIG. 5A) is on record as “active”. Also, the “IL6 expression after IL1-β stimulation” value in test [2] is reported as “reduced”. In test [3], the “release of LPS-induced pro-inflammatory cytokines” value is given as “significantly blocked”. Also, the CK2α1 levels result in test [4] was “reduced to baseline”.
